Measurements reported in publication PMC4099174 (Journal of Medicinal Chemistry, 2014).
Like-named read-outs stand apart in the source and are kept apart here.

What was measured:
[1] = tested on: HepG2 cell line
[2] = tested on: Bloodstream Trypanosoma brucei brucei Lister 427; experiment: Trypanosome cell growth dose–response assay (resazurin viability test); type: cell-based
[3] = tested on: Bloodstream form culture of T. b. brucei; experiment: Cell cycle analysis by FACS (propidium iodide); type: cell-based, Trypanosoma brucei brucei; details: concentration twice the EC50, 18 h
Experimental: For cell cycle analysis, samples (1.5 × 10^6 cells) were collected, centrifuged (1400g at 4 °C for 5 min), and washed in trypanosome dilution buffer (TDB). The cell pellets were gently suspended in 50 μL of TDB and permeabilized by adding 1 μL of saponin (25 mg/mL) for 3 min. It was then mixed with another 450 μL of TDB. RNase and propidium iodide (PI) were added to the suspension at final concentrations of 10 and 20 μg/mL, respectively, and the samples were incubated at room temperature for 30 min and then stored at 4 °C. The DNA content of PI-stained cells and the percentage of cells in each phase of the cell cycle (10 000 cells per sample) were analyzed with a Becton Dickinson FACSCalibur flow cytometer (BD Biosciences) using BD CellQuest Pro version 4.0.2 software.
Figure S3. Cell Cycle analysis of parasites upon dosage with NVP-BEZ235 derivative.
Bloodstream form culture of T. b. brucei was subjected to different drugs and analyzed by
Fluorescencecactivated cell sorter (FACS) for DNA content stained by propidium iodide (PI).
Cell cultures were incubated during 18 h with various NVPcBEZ235 derivatives using DMSO as
a control treatment. Mean ± SD of three independent experiments are shown.

[4] = ChromlogD assay; type: physicochemical; details: pH 7.4
Experimental: page 13: PHYSICOCHEMICAL PROPERTIES ASSAYS […] phosphate buffered saline, equilibrated for 1 hour at room temperature, filtered through Millipore […] filter plates (MSSL BPC). The filtrate is quantified by suitably calibrated flow injection ChemicLuminescent Nitrogen Detection.1 The standard error of the CLND solubility […] DMSO stock solution. GSK inchouse Artificial Membrane Permeability Assay: […] in 1% cholesterol decane solution was applied to a […], 0.4um, PCF culture plate. 250 μL and 100 μL 50 mM phosphate buffer pH 7.4 with 0.5% […] applied to the […] in DMSO was added to the donor compartment. The assay was incubated at RT for 3 hours. Samples from both donor and receiver compartments were analyzed by HPLC with UV detection at 215 and 254 nm and permeability was calculated. The permeability (logPapp) measuring how fast molecules pass through the black lipid membrane is expressed in nm/s. ChromlogD assay. The Chromatographic Hydrophobicity Index (CHI)2 values were measured using reversed phase HPLC column (Luna C18 (2),Phenomenex, UK) with fast acetonitrile gradient at starting mobile phase of pH = 7.4. CHI values are derived directly from the gradient retention times by using a calibration line obtained for standard compounds. The CHI value approximates to the volume % organic concentration when the compound elutes. CHI is linearly transformed into ChromlogD by leastcsquare fitting of experimental CHI values to calculated ClogP values for over 20K research compounds using the following formula: ChromlogD = 0.0857CHIc2.00. The average error of the assay is ±3 CHI unit or ±0.25 ChromlogD. S13

[5] = tested on: bloodstream form of T. brucei; experiment: Transferrin uptake (receptor-mediated endocytosis); type: cell-based, Trypanosoma brucei; details: concentration twice the EC50, 18 h
Source text: Highly efficient and rapid endocytosis is one of the most important cellular processes for this infective parasite to survive and multiply within the bloodstream of the host, and the activity of TbPI3KIII is essential for this process.[25] To gain insight on the possible target(s) of our compounds, we carried out transferrin uptake experiments to measure receptor-mediated endocytosis after drug treatment. […] Compound 16e induced a phenotype defective in endocytosis (Figure 3); however, the PIP3 molecular species identified (42:7-9) was not the same PIP3 molecular species identified in WT cells (44:9-12).
Two million trypanosomes were harvested and washed with TDB-glucose plus 1% BSA, resuspended in 250 μL in the same buffer, and incubated for 10 min at 37 °C prior to the addition of 5 μg of AlexaFluor 488-conjugated human holo-Tf (Invitrogen). Incubations were carried out for 0 (no Tf) or 3 min at 37 °C, after which cells were immediately fixed in 4 °C in 1% PFA diluted in cold PBS for at least 1 h. Parasites were finally washed twice with PBS and analyzed with a Becton Dickinson FACSCalibur flow cytometer (BD Biosciences) using BD CellQuest Pro version 4.0.2 software.

[6] = tested on: phosphorylated PIs (PIP, PIP3) in T. brucei cells; experiment: Phospholipidomics analysis (ES-MS of lipid extracts); type: cell-based, Trypanosoma brucei; details: 200 nM, 12 h; negative ion mode scans 950–1300 m/z
Source text: We originally selected 1 to investigate its potential as an trypanocidal agent on the basis of its activity as a PI3K/mTOR inhibitor in mammalian cells and the fact that PI3K activity is essential for the bloodstream form of the T. brucei parasite.[25] In the interest of elucidating the potential mechanism of action against T. brucei cells, we performed a lipidomic analysis to discern if PI kinases are likely targets of these analogues. Lipid extracts of cells grown in the presence of the best compounds at sublethal doses (200 nM) for 12 h were analyzed by ES-MS. […] There were no significant differences in the phosphatidylcholine (PC) and sphingomylein (SM) species between the control and cells grown in the presence of the other compounds (Figure S1). […] Alternatively, as is often the case, changes in the lipid profile could be a reflection in the cells succumbing to (or adapting to) a defect in a major cellular process, such as endo- or exocytosis or cell cycle arrest.
Because these compounds are thought to target PI3K, negative ion mode scans between 950 and 1300 m/z were conducted to focus upon singly and multiply phosphorylated PIs.
Total lipids from mid log phase cells were extracted by the method of Bligh and Dyer.[30] Briefly, mid log phase cells were collected by centrifugation (800g, 10 min), washed with PBS, resuspended in 100 μL of TDB-glucose, transferred to a glass tube containing 375 μL of 1:2 (v/v) CHCl3/MeOH, and vortexed. The sample was agitated vigorously for a further 10–15 min. The sample was made biphasic by the addition of 125 μL of CHCl3 and vortexed, and then 125 μL of H2O was added. The sample was vortexed again and centrifuged at 3000g at rt for 10 min. The lower (organic) phase was transferred into a new glass vial, and the aqueous phase was re-extracted with the fresh lower phase. The resultant lower phase lipid extract was dried under a stream of nitrogen and stored at 4 °C.
Lipid extracts were dissolved in 15 μL of CHCl3/MeOH (1:2) and 15 μL of acetonitrile/isopropanol/water (6:7:2) and analyzed with a triple quadrupole mass spectrometer (Absceix 4000 QTrap) equipped with a nanoelectrospray source. […] The lipid extracts were analyzed in both positive and negative ion modes using a capillary voltage of 1.25 kV. […] Tandem mass spectra (MS/MS) were obtained with collision energies as follows: 35–45 V, PC/SM in positive ion mode, parent-ion scanning of m/z 184; 35–55 V, PI in negative ion mode, parent-ion scanning of m/z 241; 35–65 V, PE in negative ion mode, parent-ion scanning of m/z 196; 20–35 V, PS in negative ion mode, neutral loss scanning of m/z 87; and 40–90 V, for all glycerophospholipids (including PA, PG, and cardiolipin) detected by precursor scanning for m/z 153 in negative ion mode. […]

[7] = Table 2, average of two replicates, read-out: T brucei EC50
[8] = Table 4, measured value (outside parentheses)

Row | Molecule | HepG2 TC50 [1] | EC50 [2, 7] | cell cycle progression [3] | chromatographic logD [4] | transferrin uptake / endocytosis [5] | phosphorylated PI (PIP) levels vs control cells [6] | chromatographic logD [4, 8] | EC50 ([2]; Trypanosoma brucei, read-out: EC50 against T. brucei)
1 | 1-(4-((4-Methylpiperazin-1-yl)methyl)phenyl)-8-(pyridin-4-yl)-1H-imidazo[4,5-c]quinolin-2(3H)-one [Compound 16j] | >7.6 µM | 3.35 µM |  |  |  |  |  | 
2 | 1-Methyl-8-(pyridin-4-yl)-1H-imidazo[4,5-c]quinolin-2(3H)-one [Compound 16k] | >20 µM | 3.27 µM |  |  |  |  |  | 
3 | Cn1c(=O)n(-c2ccc(C(C)(C)C#N)cc2)c2c3cc(-c4cnc5ccccc5c4)ccc3ncc21 [Compound 1, NVP-BEZ235, reference compound] |  |  | did not significantly alter cell cycle progression | 4.75 | inhibited endocytosis dramatically | almost complete absence of all phosphorylated PIs |  | 
4 | Cc1ccc(-n2c(=O)n(C)c3cnc4ccc(-c5ccncc5)cc4c32)cc1 [Compound 16e, 3-Methyl-8-(pyridin-4-yl)-1-(p-tolyl)-1H-imidazo[4,5-c]quinolin-2(3H)-one] |  |  | did not significantly alter cell cycle progression |  | inhibited endocytosis dramatically | significant (albeit incomplete) reduction in PIP levels | 3.5 | 
5 | COc1ccc(-n2c(=O)n(C)c3cnc4ccc(-c5ccncc5)cc4c32)cc1 [Compound 16g, 1-(4-Methoxyphenyl)-3-methyl-8-(pyridin-4-yl)-1H-imidazo[4,5-c]quinolin-2(3H)-one] |  |  | did not significantly alter cell cycle progression |  | inhibited endocytosis dramatically | almost complete absence of all phosphorylated PIs | 3.03 | 
6 | CC(C)(C#N)c1ccc(Nc2c(N)cnc3ccc(-c4cnc5ccccc5c4)cc23)cc1 [Compound 20, 2-(4-((3′-Amino-[3,6′-biquinolin]-4′-yl)amino)phenyl)-2-methylpropanenitrile] |  |  |  |  |  |  |  | 0.767 µM
